# Experimental data reported in paper PMC6755732, “Structural, Biochemical, and In Vivo Characterization of MtrR-Mediated Resistance to Innate Antimicrobials by the Human Pathogen Neisseria gonorrhoeae” (Journal of Bacteriology, 2019).
# Several values for one entry are separate records, joined by “and”; a condition that tells them apart may be missing. Equal values may be shown once. Read-outs that look alike come from different tables or passages of the source. Marks after values point to notes of the source that are not given here.
# Assays:
# [1] = system: mtrCp-lacZ in FA19 (wild type); assay: β-Galactosidase assay of mtrCp-lacZ fusion, strain FA19; type: cell-based, Neisseria gonorrhoeae
# Description: (§1) To determine if sublethal concentrations of bile salts could relieve MtrR-mediated repression of mtrC (and, by inference, the mtrCDE operon), a translational fusion of the promoter region of mtrC to lacZ was used. This fusion system was made in the wild-type (FA19) background ([41]) and cloned into mtrR deletion mutant strain JF1. Using the mtrCp-lacZ fusion, the β-galactosidase activity of the strains grown in the presence or absence of the bile salt chenodeoxycholate, taurodeoxycholate, or glycocholate was measured. The β-galactosidase levels were determined from strains grown overnight on GC agar supplemented with the bile salt at concentrations 4-fold below their specific MICs to ensure that the concentration of each bile salt was in the same biological range (the bile salt concentrations are listed in Table 2).
# N. gonorrhoeae strains FA19 (wild type) and JF1 (FA19 ΔmtrR) containing a translational mtrCp-lacZ fusion with the proAB locus were used to assess the ability of bile salts to induce mtrC expression; the construction of these strains has been described previously ([41]). The MIC of bile salts for each strain used in the β-galactosidase assay was determined using a 2-fold agar dilution method ([32]). Gonococci were grown overnight on GC agar (Difco Laboratories) supplemented with a bile salt (glycocholate, chenodeoxycholate, or taurodeoxycholate) at concentrations that were 4-fold below the MIC. After overnight growth at 37°C under 3.8% (vol/vol) CO2, the bacteria were scraped from the agar plate, resuspended in 1 ml phosphate-buffered saline (pH 7.4), and lysed by freeze-thawing three times, after which the cell debris was pelleted by centrifugation. The lysate was then used to determine β-galactosidase levels as described previously ([63]). All experiments were performed in triplicate with at least three biological replicates conducted on different days.
# [2] = molecular target: T1, WT MtrR (Neisseria gonorrhoeae, UniProt P39897); assay: ITC ligand competition, WT MtrR presaturated with one bile salt and titrated with the second; type: binding; conditions: WT MtrR (20 μM) preincubated with 20 μM taurodeoxycholate overnight at 4°C
# T1 construct: A codon optimized gene of MtrR was synthesized by GenScript and cloned into the; hexahistidine tag with TEV protease site (N, cleaved yes); made in house
# T1 sequence (P39897 whole entry): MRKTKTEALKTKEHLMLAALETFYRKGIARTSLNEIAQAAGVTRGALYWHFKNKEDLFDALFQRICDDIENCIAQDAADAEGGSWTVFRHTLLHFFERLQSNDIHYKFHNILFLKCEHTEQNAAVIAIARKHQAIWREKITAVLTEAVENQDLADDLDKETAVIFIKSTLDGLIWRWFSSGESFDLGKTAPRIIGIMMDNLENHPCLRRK
# Experimental: (A to D) Isothermal titration calorimetry thermograms and resulting binding isotherms for binding reactions between MtrR(R176E) and chenodeoxycholate (A) and taurodeoxycholate (B), as well as between MtrR(W136L) and chenodeoxycholate (C) and taurodeoxycholate (D). (E and F) Isothermal titration calorimetry thermograms and resulting binding isotherms for ligand competition assays. (E) WT MtrR (20 μM) was incubated with 20 μM taurodeoxycholate overnight at 4°C; chenodeoxycholate was titrated into MtrR-TDCA. (F) WT MtrR (20 μM) was incubated with 20 μM chenodeoxycholate overnight at 4°C; taurodeoxycholate was titrated into MtrR-CDCA.
# This finding supports the idea that these ligands occupy different binding sites on MtrR and that the binding of taurodeoxycholate occludes, either directly or allosterically, the binding site of chenodeoxycholate. With our current data, we cannot determine the exact binding location of taurodeoxycholate. […]
# Purified MtrR was dialyzed extensively against buffer containing 20 mM Tris [pH 8.0], 200 mM NaCl, 10% glycerol, and 1 mM TCEP overnight at 4°C. […] After subtraction of germane blank data, the titration data were analyzed using the program ORIGIN 5.0.
# [3] = molecular target: T2, MtrR(W136L)-mtrCDE operator DNA (Neisseria gonorrhoeae, UniProt P39897, W136L); assay: Electrophoretic mobility shift assay, induction of MtrR(W136L); type: biochemical; conditions: EMSA
# T2 construct: hexahistidine tag with TEV protease site (N, cleaved yes); made in house; host or cells: Rosetta Gami B(DE3) pLysS cells (Novagen)
# T2 sequence (P39897 whole entry W136L): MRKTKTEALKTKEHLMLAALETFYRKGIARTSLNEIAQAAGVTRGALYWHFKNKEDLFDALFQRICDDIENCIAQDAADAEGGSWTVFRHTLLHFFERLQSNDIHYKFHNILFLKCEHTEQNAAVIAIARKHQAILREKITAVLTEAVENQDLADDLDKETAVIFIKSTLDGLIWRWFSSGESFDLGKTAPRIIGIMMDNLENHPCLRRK
# Description: (§2) We hypothesized that the bile salts chenodeoxycholate and taurodeoxycholate occupied the binding pocket in which the CAPS electron density was observed. In our crystal structure, residues R176′ and W136 appear to be potentially important for H bonding and π stacking, respectively, with the ligand (see Fig. S4). Therefore, we generated and purified the single-site mutant MtrR proteins, MtrR(R176A), MtrR(R176E), and MtrR(W136L), to determine the importance of these residues for ligand binding (see the supplemental material) ([40]). First, we determined the capabilities of these single mutants to bind DNA with our FP-based assay. All the mutants were capable of binding the mtrCDE target sequence, with dissociation constants in the nanomolar range and all within 5-fold of the wild-type protein (see Fig. S7A). […] At higher concentrations (5 to 10 mM), taurodeoxycholate induced all three mutants. […]
# (§3) Complementary oligodeoxynucleotides containing the MtrR binding site from the mtrC promoter (top strand, 5′-[…]-3′; an unusual pseudo-direct repeat is underlined) were annealed by heating an equimolar mixture of the top and bottom strands at 95°C for 5 min, followed by slow cooling to room temperature. […] The gels were stained with ethidium bromide and visualized and analyzed with an Alpha Innotech gel documentation instrument. The intensities of free DNA were measured with ImageJII ([61], [62]).
# [4] = system: mtrCp-lacZ in JF1 (FA19 ΔmtrR); type: cell-based, Neisseria gonorrhoeae
# Description: as §1
# N. gonorrhoeae strains FA19 (wild type) and JF1 (FA19 ΔmtrR) containing a translational mtrCp-lacZ fusion with the proAB locus were used to assess the ability of bile salts to induce mtrC expression; the construction of these strains has been described previously ([41]). The MIC of bile salts for each strain used in the β-galactosidase assay was determined using a 2-fold agar dilution method ([32]). […]
# [5] = molecular target: T3, MtrR-DNA complex (Neisseria gonorrhoeae, UniProt P39897); type: biochemical; conditions: EMSA, wild-type MtrR, mtrC promoter oligoduplex
# T3 construct: nearly all 210 residues of each protomer observed, with the exception of residues 1 through 7; hexahistidine tag (thrombin-cleavable) (cleaved yes); made in house
# T3 sequence (P39897 whole entry, one chain of several): as the sequence (P39897 whole entry) above
# Experimental: To test the hypothesis that these bile salts directly bind to MtrR and potentially derepress gene expression by interfering with the DNA binding activity of MtrR, MtrR-mtrC promoter interactions were tested in the presence and absence of different concentrations of several bile salts. […] It is important to note that this is a competition assay that, due to its experimental design, requires the use of 3 μM DNA and 4 to 10 μM MtrR dimer. Consequently, this means that ∼99.9% of all DNA is MtrR bound.
# Complementary oligodeoxynucleotides containing the MtrR binding site from the mtrC promoter (top strand, 5′-[sequence]-3′; an unusual pseudo-direct repeat is underlined) were annealed by heating an equimolar mixture of the top and bottom strands at 95°C for 5 min, followed by slow cooling to room temperature. Binding reactions were carried out in 20-μl volumes of binding buffer (20 mM Tris [pH 8.0], 200 mM NaCl, 10% glycerol, and 1 mM TCEP) containing 1 μg oligoduplex, 1 μg poly(dI-dC), and 4 to 10 μg MtrR. After a 20-minute incubation at room temperature, the preformed complex was incubated with or without various concentrations of selected bile salts at room temperature for an additional 10 min. […] The gels were stained with ethidium bromide and visualized and analyzed with an Alpha Innotech gel documentation instrument. The intensities of free DNA were measured with ImageJII ([61], [62]).
# [6] = molecular target: T4, MtrR (Neisseria gonorrhoeae, UniProt P39897); assay: Isothermal titration calorimetry, wild-type MtrR with bile salts; type: binding; conditions: ITC; for Stoichiometry N, WT MtrR: bile salt per MtrR
# T4 construct: A codon optimized gene of MtrR was synthesized by GenScript and cloned into the; hexahistidine tag with TEV protease site (N, cleaved yes); made in house
# T4 sequence (P39897 whole entry): as above
# Experimental: (§4) Purified MtrR was dialyzed extensively against buffer containing 20 mM Tris [pH 8.0], 200 mM NaCl, 10% glycerol, and 1 mM TCEP overnight at 4°C. The stock solutions and the necessary dilutions of the bile salts were prepared using this dialysis buffer. Titrations with 20 μM MtrR in the cell and 250 μM ligand in the syringe were performed using a VP-ITC microcalorimeter (Microcal Inc.). All measurements were conducted at 25°C with a stirring speed of 200 rpm. After subtraction of germane blank data, the titration data were analyzed using the program ORIGIN 5.0.
# (§5) Protein purification for Isothermal Titration Calorimetry experiments and mutant […]
# (§6) A codon optimized gene of MtrR was synthesized by GenScript and cloned into the pMCSG7 vector in- frame with the N-terminal Hexa- histidine tag and tobacco etch virus (TEV) protease cleavage site. This construct was used as the template for site- directed mutagenesis and to generate wild- type data in supplemental f igures 5-6 and Isothermal Titration Calorimetry data. This protein was overexpressed and purified as described in the “Materials and Methods” of the document, except the he xa -histidine tag MtrR was cleaved by TEV protease following NiNTA affinity chromatography. Cleaved MtrR was purified from tagged MtrR and cleaved hexa- histidine tag by Ni- NTA aff inity chromatography and then further purified by size exclusion chromatography (S200).
# [7] = molecular target: T5, MtrR(R176E) (Neisseria gonorrhoeae, UniProt P39897, R176E); assay: Isothermal titration calorimetry, MtrR(R176E) with bile salts; type: binding; conditions: ITC
# T5 construct: hexahistidine tag with TEV protease site (N, cleaved yes); made in house; host or cells: Rosetta Gami B(DE3) pLysS cells (Novagen)
# T5 sequence (P39897 whole entry R176E): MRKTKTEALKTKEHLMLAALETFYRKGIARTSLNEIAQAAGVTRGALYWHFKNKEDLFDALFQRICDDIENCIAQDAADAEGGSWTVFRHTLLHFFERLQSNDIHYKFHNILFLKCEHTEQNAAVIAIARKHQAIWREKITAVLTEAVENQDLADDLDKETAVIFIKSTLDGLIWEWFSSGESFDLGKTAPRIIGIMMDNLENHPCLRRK
# Experimental: as §4, §5, §6
# Site-directed mutagenesis
# To introduce the mutations W 136L, R176A, and R176E, we performed DpnI mediated site-directed mutagenesis. Complementary oligonucleotides containing the desired mutations were obtained from IDT. PCR reactions containing two complementary primers, template DNA, Pfu DNA polymerase buffer, dNTP, and Pfu DNA polymerase were incubated at 95 °C for 30 seconds followed by 18 cycles of 95 °C for […], 55 °C for one minute, and 68 °C for 11 minutes. After cooling the reactions to 4 °C, 10 units of Dpn1 (NEB) was added to each 50 µl reaction and incubated at 37 °C for 3 hours.
# The resulting plasmids were used to transform DH5α (Thermo Fisher) cells for plasmid prep. After checking the sequences to ensure the mutations had been incorporated, these plasmids were overexpressed in Rosetta Gami B(DE3) pLysS cells (Novagen)
# [8] = molecular target: T6, MtrR(R176A)-mtrCDE operator DNA (Neisseria gonorrhoeae, UniProt P39897, R176A); assay: Electrophoretic mobility shift assay, induction of MtrR(R176A); type: biochemical; conditions: EMSA
# T6 construct: hexahistidine tag with TEV protease site (N, cleaved yes); made in house; host or cells: Rosetta Gami B(DE3) pLysS cells (Novagen)
# T6 sequence (P39897 whole entry R176A): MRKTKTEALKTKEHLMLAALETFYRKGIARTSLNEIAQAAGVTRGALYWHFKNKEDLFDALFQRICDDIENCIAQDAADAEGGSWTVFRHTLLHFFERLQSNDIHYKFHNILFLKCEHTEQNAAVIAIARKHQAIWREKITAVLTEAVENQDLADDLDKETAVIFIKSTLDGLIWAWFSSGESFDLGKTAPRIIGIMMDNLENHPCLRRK
# Description: as §2, §3
# [9] = molecular target: T7, MtrR-mtrCDE promoter (Neisseria gonorrhoeae, UniProt P39897); type: biochemical; conditions: for Fold increase in Kd: versus no bile salt
# T7 construct: nearly all 210 residues of each protomer observed, with the exception of residues 1 through 7; hexahistidine tag (thrombin-cleavable) (cleaved yes); made in house
# T7 sequence (P39897 whole entry): as the sequence (P39897 whole entry) above
# Experimental: Thus, to rule out any effect of alkaline pH on MtrR-DNA interactions, we buffered the CAPS used in the FP assay to pH 8.0 before testing its effect on DNA binding.
# Fluorescence polarization-based DNA binding experiments were performed with a Panvera Beacon 2000 fluorescence polarization system (Invitrogen) utilizing 5′-fluorescein-labeled DNA. Polarization (P) of such 5′-labeled DNA increases as a function of protein binding, and equilibrium dissociation constants are determined by curve fitting the values of millipolarization (P × 10^−3) units against the protein concentration. To determine the effects of various ligands on MtrR-DNA binding, 1 nM 5′-fluoresceinated oligodeoxynucleotide duplexes containing the mtrC operator site in 1 ml binding buffer (20 mM Tris HCl [pH 8.0], 100 mM NaCl, and 2.5% glycerol) were titrated against increasing concentrations of purified MtrR in the presence or absence of the indicated concentrations of bile salt, and the resulting changes in polarization were measured. All the samples were excited at 490 nm, and their polarized emissions were measured at 530 nm. All the data were plotted using Kaleidagraph (Synergy Software) and Prism (GraphPad Software), and the resulting plots were fitted to the following equation: P = {(Pbound − Pfree)[protein]/(KD + [protein])} + Pfree, where P is the polarization measured at a given protein concentration, Pfree is the initial polarization of the free ligand, Pbound is the maximum polarization of specifically bound ligand, KD is the equilibrium dissociation constant, and [protein] is the protein concentration. Nonlinear least-squares analysis was used to determine Pbound, and Kd. The reported binding constants are the average values from at least three independent experimental measurements.
# [10] = molecular target: T8, MtrR(R176E)-mtrCDE operator DNA (Neisseria gonorrhoeae, UniProt P39897, R176E); assay: Electrophoretic mobility shift assay, induction of MtrR(R176E); type: biochemical; conditions: EMSA
# T8 construct: hexahistidine tag with TEV protease site (N, cleaved yes); made in house; host or cells: Rosetta Gami B(DE3) pLysS cells (Novagen)
# T8 sequence (P39897 whole entry R176E): as the sequence (P39897 whole entry R176E) above
# Description: as §2, §3
# [11] = molecular target: T9, MtrR(W136L) (Neisseria gonorrhoeae, UniProt P39897, W136L); assay: Isothermal titration calorimetry, MtrR(W136L) with bile salts; type: binding; conditions: ITC
# T9 construct: hexahistidine tag with TEV protease site (N, cleaved yes); made in house; host or cells: Rosetta Gami B(DE3) pLysS cells (Novagen)
# T9 sequence (P39897 whole entry W136L): as the sequence (P39897 whole entry W136L) above
# Experimental: as §4, §5
# A codon optimized gene of MtrR was synthesized by GenScript and cloned into the pMCSG7 vector in- frame with the N-terminal Hexa- histidine tag and tobacco etch virus (TEV) protease cleavage site. This construct was used as the template for site- directed mutagenesis and to generate wild- type data in supplemental f igures 5-6 and Isothermal Titration Calorimetry data. This protein was overexpressed and purified as described in the “Materials and Methods” of the document, except the he xa -histidine tag MtrR was cleaved by TEV protease following NiNTA affinity chromatography. […]
smiles,measurement,setting,value
"C[C@H](CCC(=O)O)[C@H]1CC[C@H]2[C@@H]3[C@H](O)C[C@@H]4C[C@H](O)CC[C@]4(C)[C@H]3CC[C@]12C [Chenodeoxycholate, chenodeoxycholate]",MtrR-dependent derepression of the mtrC promoter,"[1]; FA19 compared with ΔmtrR strain JF1, sublethal bile salt",clearly evident
same,Fold increase of mtrCp-lacZ activity,"[1]; strain FA19, grown on GC agar with bile salt 4-fold below MIC versus normal agar, mM concentration in parentheses in the cell",5.09 (0.2)
same,"Binding, ligand competition: chenodeoxycholate titrated into MtrR-TDCA",[2],minimal binding
same,Concentration that induces (dissociates from mtrCDE operator DNA) MtrR(W136L),[3],5 to 10 mM
same,Fold increase of mtrCp-lacZ activity,[4],1.37 (0.2)^b
same,Concentration that disrupts the preformed MtrR-DNA complex,[5],2 to 3 mM
same,"ΔH, WT MtrR",[6],-4.127 ± 0.739 kcal/mol
same,"ΔS, WT MtrR",[6],10.85 ± 3.13 cal/mol/deg
same,Kd,"[6]; 25°C, 20 μM MtrR in cell, 250 μM ligand in syringe, read-out: Kd of bile salt binding to WT MtrR",4.4 µM and ~5 µM
same,"Stoichiometry N, WT MtrR",[6],0.444 ± 0.097
same,"Stoichiometry N, WT MtrR",[6]; listed as CDCA,~ 0.5
same,"Stoichiometry N, WT MtrR",[6]; listed as chenodeoxycholate,one molecule of bile salt per MtrR dimer
same,"Stoichiometry N, MtrR(R176E)",[7],0.521 ± 0.038
same,"ΔH, MtrR(R176E)",[7],-12.979 ± 8.228 kcal/mol
same,"ΔS, MtrR(R176E)",[7],-23.00 ± 31.48 cal/mol/deg
same,Kd,[7]; read-out: Kd of bile salt binding to MtrR(R176E),97 ± 64 µM
same,Concentration that induces (dissociates from mtrCDE operator DNA) MtrR(R176A),[8],did not induce either MtrR(R176A) or MtrR(R176E) to the same degree as the wild-type protein
same,Fold increase in Kd,[9]; 1 mM bile salt,8.3
same,Fold increase in Kd,"[9]; 1 mM bile salt, listed as chenodeoxycholate",8- to 28
same,Fold increase in Kd,[9]; 5 mM bile salt,No binding
same,Kd of MtrR-mtrCDE promoter binding in the presence of bile salt,"[9]; 5 mM bile salt, no bile salt 18 ± 3 nM",no DNA binding by MtrR was detected
same,Concentration that induces (dissociates from mtrCDE operator DNA) MtrR(R176E),[10],did not induce either MtrR(R176A) or MtrR(R176E) to the same degree as the wild-type protein
same,Kd of bile salt binding to MtrR(W136L),[11],No binding
